The text below walks through data of PubChem BioAssay AID2202556 (NIEHS Division of Translational Toxicology (DTT)).

Inconclusive results are not listed. Activity calls are given as the source filed them. No rule for the calls is given here.

The test system of this data set is in vivo alkaline comet assay, DNA damage, mouse/rat. Nature of the data set: In vivo alkaline comet assay, summary data. From the text:
The comet assay examines the ability of substances to cause DNA damage in cells from a variety of different tissues, such as liver, stomach, lung, or brain.
There are multiple forms of DNA damage, including DNA adducts (addition of a chemical structure to a DNA base), oxidative damage to DNA, and breaks in one or both strands. The comet assay can detect single and double strand breaks, DNA adducts, and DNA crosslinks, as well as breaks along the DNA strand that are produced during the normal processes of DNA repair or replication. Thus, the comet assay provides a snapshot of the balance between DNA damage and DNA repair at the time the tissue was harvested.
The DNA damage detected by the comet assay can resolve in several ways. The damage is most often rapidly and correctly repaired. Alternately, a cell that sustains DNA damage may die without passing the damage on to daughter cells following cell division. However, if the damage is not repaired or is repaired incorrectly, the daughter cells may inherit the damage as mutations or chromosome breaks, which are found in many human diseases including cancer. The outcome of the detected DNA damage is unknown.
The comet assay provides the advantage of being able to look at chemical effects on DNA in tissues other than bone marrow, which is the main source of cells used to examine chemical-induced chromosome damage and mutation induction in animals (see Micronucleus Assay).
Animals (rats or mice) are treated with a test substance once or multiple times, and DNA damage is usually evaluated 3-6 hours after the final treatment.
The animal tissue is rapidly minced in a buffer solution, combined with agarose, and layered onto slides. The slides are placed in a solution that removes the cellular and nuclear membranes and cellular proteins, leaving behind the nuclear DNA. The slides are then incubated in an alkaline solution (pH > 13) to convert alkali-labile sites into strand breaks and allow the DNA to unwind. Next, the slides are subjected to an electrical field in a tank filled with a buffer solution. Broken DNA, having a negative charge, migrates out of the area of the nucleus toward the positively charged anode. This forms a comet-like shape with the nucleus at the "head" and the migrated DNA as the "tail." All steps of the method are performed using ice-cold solutions and buffers. After this process, the DNA is stained with a fluorescent dye and cells are analyzed using Comet Assay IV Imaging Software.
For each cell, DNA migration is analyzed using an automated software system attached to a microscope. The extent of damage is characterized as the percent tail DNA (how much DNA migrated to the tail, compared to the total DNA as a percentage). At least 100 cells per sample are evaluated; current guidelines for the assay recommend analysis of at least 150 cells per sample. The data is statistically analyzed to determine if there is a significant increase in percent tail DNA in chemical-exposed animals compared to the controls (animals not exposed).
Dose-related responses, as well as significant dose groups, are considered during the evaluation of the data. For a positive test, both a dose response and at least one significant dose group are required. If only one of these measures is present, the test is considered to be equivocal. The absence of either condition results in a negative test. The final conclusions for comet assays are determined by considering the results of statistical analyses, reproducibility of any observed effects, and the magnitude of the effects. Ultimately, both biological and statistical significance are considered when reaching a final conclusion.
For more details, please refer to the original protocol: https://ntp.niehs.nih.gov/research/apptoxres/genetic and publication: https://www.ncbi.nlm.nih.gov/pubmed/26212309

With `CNNC`, the result was active.

On to `CC[C@]1(O)C[C@H]2CN(CCc3c([nH]c4ccccc34)[C@@](C(=O)OC)(c3cc4c(cc3OC)N(C=O)[C@H]3[C@@](O)(C(=O)OC)[C@H](OC(C)=O)[C@]5(CC)C=CCN6CC[C@]43[C@@H]65)C2)C1`, for which the result was active.

Regarding `NC(=O)CC(N)=O`, the outcome is “active; positive”.

Take `CCOS(C)(=O)=O`: the result was active.

Take `Nc1nc(=O)n([C@@H]2CS[C@H](CO)O2)cc1F`: the outcome is “active; positive”.

With `OC(CCl)CCl`, the outcome was “active; positive”.

For the compound `CC(=O)CC(C)=O`, the outcome is “active; positive”.

In the case of `Cc1ccc(N(C)C)cc1`, the outcome is “active; negative”.

With `O=C([O-])[O-].O=C([O-])[O-].[OH-].[OH-].[OH-].[OH-].[OH-].[OH-].[Zn+2].[Zn+2].[Zn+2].[Zn+2].[Zn+2]`, the result was active.

Turning to `CC(C)c1ccccc1`, the outcome is “active; positive”.

Regarding `NC(=O)NO`, the outcome was “active; positive”.

As to `C=CC(N)=O`, the outcome is “active; positive”.

With `CNC(=O)Oc1cccc2ccccc12`, the result was active.

Consider `C=CC1(C)OC(=O)N(c2cc(Cl)cc(Cl)c2)C1=O` (centres undefined), for which the outcome is “active; positive”.

Regarding `c1ccoc1`, the outcome is “active; positive”.

For the compound `CCNC(=O)CC(C)=O`, the outcome is “active; positive”.

As to `ClCC1CO1` (centres undefined), the outcome was “active; positive”.

For `C=CC(=O)NC(C)(C)C`, the outcome was “active; positive”.

Regarding `[O]=[Sb][O][Sb]=[O]`, the outcome is “active; positive”.
